The subject of experiment [1] is Staphylococcus aureus. In words: Antibacterial activity against Staphylococcus aureus ATCC 13709 by broth microdilution method. Type of experiment: functional. A general note: Dilution methods test growth across graded concentrations, often in twofold steps.
The next experiment has as its system Acinetobacter baumannii. The experiment can be described thus: Antibacterial activity against Acinetobacter baumannii ATCC 19606 by broth microdilution method. Type of experiment: functional. The note with it: ATCC 19606 = CIP 70.34 = JCM 6841.
Experiment [2] deals with Escherichia coli. The experiment can be described thus: Antibacterial activity against wild type Escherichia coli ATCC 25922 by broth microdilution method in presence of 20% mouse serum. Type of experiment: functional.
Experiment [3] can be described thus: Inhibition of Escherichia coli GyrB assessed as release of inorganic phosphate from ATP hydrolysis after 30 mins by coupled spectrophotometric assay.
Another experiment concerns Streptococcus pneumoniae. The experiment can be described thus: Antibacterial activity against Streptococcus pneumoniae ATCC 51916 by broth microdilution method. Format: functional.
For experiment [4], the system named is Escherichia coli. The experiment can be described thus: Antibacterial activity against permeabilized Escherichia coli IBAS849 by broth microdilution method. Format: functional.
Experiment [5] in a line: Inhibition of Escherichia coli parE assessed as release of inorganic phosphate from ATP hydrolysis after 30 mins by coupled spectrophotometric assay.
A further experiment concerns Klebsiella pneumoniae. The experiment can be described thus: Antibacterial activity against Klebsiella pneumoniae ATCC 700603 by broth microdilution method. Type of experiment: functional.
For experiment [6], the system named is Staphylococcus aureus. The experiment can be described thus: Antibacterial activity against Staphylococcus aureus ATCC 13709 by broth microdilution method in presence of 20% mouse serum. Type of experiment: functional.
The test system of experiment [7] is Escherichia coli. The experiment can be described thus: Antibacterial activity against Escherichia coli BW25113 harboring deltatolC by broth microdilution method. Format: functional.
Experiment [8] in a line: Inhibition of Francisella tularensis parE assessed as release of inorganic phosphate from ATP hydrolysis after 30 mins by coupled spectrophotometric assay.
The nature of experiment [9]: Inhibition of Francisella tularensis GyrB assessed as release of inorganic phosphate from ATP hydrolysis after 30 mins by coupled spectrophotometric assay.
In experiment [10] the test system is Escherichia coli. In words: Antibacterial activity against wild type Escherichia coli ATCC 25922 by broth microdilution method. Type of experiment: functional.
The subject of the next experiment is Pseudomonas aeruginosa. In words: Antibacterial activity against Pseudomonas aeruginosa PAO1 by broth microdilution method. Format: functional.
For another experiment, the system named is Haemophilus influenzae. In words: Antibacterial activity against Haemophilus influenzae ATCC 49247 by broth microdilution method. Type of experiment: functional.

The values that follow come from ChEMBL document CHEMBL2331254, “Pyrrolopyrimidine inhibitors of DNA gyrase B (GyrB) and topoisomerase IV (ParE), Part II: development of inhibitors with broad spectrum, Gram-negative antibacterial activity” (Bioorg Med Chem Lett, 2013).

Each structure is given as a SMILES string. Converted amounts (≈) assume the structure as drawn.

As for `CCc1[nH]c2nc(Oc3cncnc3)nc(N3C[C@@H]4[C@@H](N)[C@@H]4C3)c2c1Cl`, the MIC in the experiment on Staphylococcus aureus [1] was 1 µg/mL (≈ 2.69 µM); against Acinetobacter baumannii, 16 µg/mL (≈ 43 µM); in the experiment with Escherichia coli [2], 2 µg/mL; with Streptococcus pneumoniae it was 2 µg/mL (≈ 5.38 µM); in the experiment with Escherichia coli [4], 1 µg/mL (≈ 2.69 µM); in the experiment on Klebsiella pneumoniae, 64 µg/mL (≈ 172 µM). Moreover, the MIC with Staphylococcus aureus [6] amounted to 2 µg/mL; in the experiment on Escherichia coli [7], 2 µg/mL (≈ 5.38 µM); in the experiment on Escherichia coli [10], 4 µg/mL (≈ 10.8 µM); against Pseudomonas aeruginosa, 32 µg/mL (≈ 86.1 µM); in the experiment on Haemophilus influenzae, 4 µg/mL (≈ 10.8 µM). The Ki (commonly a dissociation constant, usually derived from enzyme kinetics or from competition with a known ligand) is 0.4 nM in experiment [3], 3.4 nM in experiment [5], 1.8 nM in experiment [8] and less than 0.3 nM in experiment [9].
On to `CCc1[nH]c2nc(Oc3cnc4cccnc4c3)nc(N3C[C@@H]4[C@@H](N)[C@@H]4C3)c2c1Cl`, for which the MIC is no more than 0.06 µg/mL against Staphylococcus aureus [1]; 4 µg/mL (≈ 9.48 µM) against Acinetobacter baumannii; 4 µg/mL with Escherichia coli [2]; no more than 0.06 µg/mL in the experiment with Streptococcus pneumoniae; 1 µg/mL (≈ 2.37 µM) in the experiment on Escherichia coli [4]; 32 µg/mL (≈ 75.8 µM) against Klebsiella pneumoniae. Moreover, the MIC in the experiment with Staphylococcus aureus [6] is 0.13 µg/mL; against Escherichia coli [7] it was no more than 0.06 µg/mL; against Escherichia coli [10], 4 µg/mL (≈ 9.48 µM); against Pseudomonas aeruginosa, 8 µg/mL (≈ 19 µM); in the experiment on Haemophilus influenzae, 1 µg/mL (≈ 2.37 µM). Besides, the Ki in experiment [3] is less than 0.3 nM; in experiment [5] it was 0.9 nM; in [8], 0.6 nM.
With `CCc1[nH]c2nc(Oc3cnc4ccc[n+]([O-])c4c3)nc(N3CC[C@@H](N)C3)c2c1Cl`, the MIC was determined as 0.13 µg/mL (≈ 0.305 µM) with Staphylococcus aureus [1]; 8 µg/mL (≈ 18.8 µM) with Acinetobacter baumannii; 2 µg/mL in the experiment with Escherichia coli [2]; 1 µg/mL (≈ 2.35 µM) in the experiment with Streptococcus pneumoniae; 1 µg/mL (≈ 2.35 µM) against Escherichia coli [4]; 32 µg/mL (≈ 75.1 µM) in the experiment on Klebsiella pneumoniae. For the same molecule, the MIC in the experiment on Staphylococcus aureus [6] amounted to 0.13 µg/mL; in the experiment on Escherichia coli [7], 0.5 µg/mL (≈ 1.17 µM); with Escherichia coli [10], 4 µg/mL (≈ 9.39 µM); against Pseudomonas aeruginosa it was 16 µg/mL (≈ 37.6 µM); in the experiment on Haemophilus influenzae it was 4 µg/mL (≈ 9.39 µM). The values for the Ki in experiment [3], in [5] and in experiment [8] were less than 0.3 nM, 4.6 nM and 1.1 nM, respectively.
As to `CCc1[nH]c2nc(Sc3cnc4cccnc4c3)nc(N3C[C@@H]4[C@@H](N)[C@@H]4C3)c2c1Cl`, the MIC was no more than 0.06 µg/mL in the experiment with Staphylococcus aureus [1]; 8 µg/mL (≈ 18.3 µM) against Acinetobacter baumannii; 8 µg/mL in the experiment with Escherichia coli [2]; 0.13 µg/mL (≈ 0.297 µM) in the experiment on Streptococcus pneumoniae; 1 µg/mL (≈ 2.28 µM) in the experiment on Escherichia coli [4]; greater than 64 µg/mL in the experiment on Klebsiella pneumoniae. In addition, the MIC with Staphylococcus aureus [6] turned out to be 0.5 µg/mL; with Escherichia coli [7], 0.25 µg/mL (≈ 0.571 µM); with Escherichia coli [10], 4 µg/mL (≈ 9.13 µM); against Pseudomonas aeruginosa it was 8 µg/mL (≈ 18.3 µM); in the experiment with Haemophilus influenzae, 4 µg/mL (≈ 9.13 µM). Besides, the Ki in experiment [3] was less than 0.3 nM; in [5], less than 1 nM; in experiment [8], 0.6 nM.
In the case of `CCc1[nH]c2nc(Sc3cnc4ccc[n+]([O-])c4c3)nc(N3C[C@@H]4[C@@H](N)[C@@H]4C3)c2c1Cl`, the MIC against Staphylococcus aureus [1] came out at 0.03 µg/mL (≈ 0.0661 µM); in the experiment with Acinetobacter baumannii, 4 µg/mL (≈ 8.81 µM); in the experiment on Escherichia coli [2] it was 4 µg/mL; against Streptococcus pneumoniae, 0.25 µg/mL (≈ 0.551 µM); against Escherichia coli [4], 0.13 µg/mL (≈ 0.286 µM); in the experiment on Klebsiella pneumoniae, 32 µg/mL (≈ 70.5 µM). Also, the MIC with Staphylococcus aureus [6] stood at 0.13 µg/mL; against Escherichia coli [7], 0.13 µg/mL (≈ 0.286 µM); in the experiment on Escherichia coli [10], 2 µg/mL (≈ 4.41 µM); in the experiment with Pseudomonas aeruginosa it was 4 µg/mL (≈ 8.81 µM); against Haemophilus influenzae it was 2 µg/mL (≈ 4.41 µM). Moreover, the Ki was less than 0.3 nM in experiment [3], 1.7 nM in experiment [5] and 2.5 nM in [8].
